Assay results reported in patent US20240300980A1, “HETEROCYCLIC COMPOUNDS AS KRAS INHIBITOR, AND PREPARATION THEREFOR AND USE THEREOF IN TREATMENT” (SHANGHAI KECHOW PHARMA, INC., priority 2021, published 2024).

Test system: AGS cells (KRAS^G12D)
Test: Detection of cell proliferation in vitro by MTT/MTS method (cell activity experiment)
Type: cell-based
Settings: Homo sapiens, AGS, 72 h, AGS cells; MTT/MTS; 3 days of drug treatment; read-out: AGS IC50
How it was run: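 After 3-day compound exposure (final DMSO 0.5%), viability of AGS (KRAS G12D) cells, plated 1000/well one day before dosing, was measured at 490 nm following 4 h MTT or MTS incubation. IC50 was fitted from dose–effect curves relative to DMSO-treated wells.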

Structure (SMILES) | IC50 [nM]
CCc1c(F)ccc2cc(O)cc(-c3cnc4c(N5C[C@H]6CC[C@@H](C5)N6)nc(OC[C@@]56CCCN5C[C@H](F)C6)nc4c3)c12 [Example 201, 4-(4-((1R,5S)-3,8-diazabicyclo[3.2.1]octan-3-yl)-2-(((2R,7aS)-2-fluorotetrahydro-1H-pyrrolizin-7a(5H)-yl)methoxy)pyrido[3,2-d]pyrimidin-7-yl)-5-ethyl-6-fluoronaphthalen-2-ol] | > 2500
Oc1cc2c(c(-c3ncc4c(N5C[C@H]6CC[C@@H](C5)N6)nc(OC[C@@]56CCCN5C[C@H](F)C6)nc4c3F)c1)C1(CCC2)CC1 [Example 256, 8′-(4-((1R,5S)-3,8-diazabicyclo[3.2.1]octan-3-yl)-8-fluoro-2-(((2R,7aS)-2-fluorotetrahydro-1H-pyrrolizin-7a(5H)-yl)methoxy)pyrido[4,3-d]pyrimidin-7-yl)-3′,4′-dihydro-2′H-spiro[cyclopropane-1,1′-naphthalen]-6′-ol] | 303
CCC1CCCc2cc(O)cc(-c3ncc4c(N5C[C@H]6CC[C@@H](C5)N6)nc(OC[C@@]56CCCN5C[C@H](F)C6)nc4c3F)c21 (stereo partly drawn) [Example 227, 4-(4-((1R,5S)-3,8-diazabicyclo[3.2.1]octan-3-yl)-8-fluoro-2-(((2R,7aS)-2-fluorotetrahydro-1H-pyrrolizin-7a(5H)-yl)methoxy)pyrido[4,3-d]pyrimidin-7-yl)-5-ethyl-5,6,7,8-tetrahydronaphthalen-2-ol] | 5
CC[C@H]1CCc2cc(O)cc(-c3ncc4c(N5CC6CCC(C5)N6)nc(OC[C@@]56CCCN5C[C@H](F)C6)nc4c3F)c21 (single isomer, unassigned) [Example 222, (S)-7-(4-((1R,5S)-3,8-diazabicyclo[3.2.1]octan-3-yl)-8-fluoro-2-(((2R,7aS)-2-fluorotetrahydro-1H-pyrrolizin-7a(5H)-yl)methoxy)pyrido[4,3-d]pyrimidin-7-yl)-1-ethyl-2,3-dihydro-1H-inden-5-ol or (R)-7-(4-((1R,5S)-3,8-diazabicyclo[3.2.1]octan-3-yl)-8-fluoro-2-(((2R,7aS)-2-fluorotetrahydro-1H-pyrrolizin-7a(5H)-yl)methoxy)pyrido[4,3-d]pyrimidin-7-yl)-1-ethyl-2,3-dihydro-1H-inden-5-ol] | 2.5
Nc1cc2ccc(F)c(Cl)c2c(-c2ncc3c(N4C[C@H]5CC[C@@H](C4)N5)nc(OC[C@@]45CCCN4C[C@H](F)C5)nc3c2F)n1 [Example 39, 1-(4-((1R,5S)-3,8-diazabicyclo[3.2.1]octan-3-yl)-8-fluoro-2-(((2R,7aS)-2-fluorotetrahydro-1H-pyrrolizin-7a(5H)-yl)methoxy)pyrido[4,3-d]pyrimidin-7-yl)-8-chloro-7-fluoroisoquinolin-3-amine] | > 2500
O=C1CCCc2cc(O)cc(-c3ccc4c(N5C[C@H]6CC[C@@H](C5)N6)nc(OC[C@@]56CCCN5C[C@H](F)C6)nc4c3F)c21 [Example 296, 8-(4-((1R,5S)-3,8-diazabicyclo[3.2.1]octan-3-yl)-8-fluoro-2-(((2R,7aS)-2-fluorotetrahydro-1H-pyrrolizin-7a(5H)-yl)methoxy)quinazolin-7-yl)-6-hydroxy-3,4-dihydronaphthalen-1(2H)-one] | > 2500
C#Cc1c(F)ccc2cc(O)cc(-c3ncc4c(N5C[C@H]6CC[C@@H](C5)S6)nc(OC[C@@]56CCCN5C[C@H](F)C6)nc4c3F)c12 [Example 21, 4-(4-((1R,5S)-8-thia-3-azabicyclo[3.2.1]octan-3-yl)-8-fluoro-2-(((2R,7aS)-2-fluorotetrahydro-1H-pyrrolizin-7a(5H)-yl)methoxy)pyrido[4,3-d]pyrimidin-7-yl)-5-ethynyl-6-fluoronaphthalen-2-ol] | 269
CCc1cccc2cc(O)cc(-c3ccc4c(N5C[C@H]6CC[C@@H](C5)N6)nc(OC[C@@]56CCCN5C[C@H](F)C6)nc4c3F)c12 [Example 93, 4-(4-((1R,5S)-3,8-diazabicyclo[3.2.1]octan-3-yl)-8-fluoro-2-(((2R,7aS)-2-fluorotetrahydro-1H-pyrrolizin-7a(5H)-yl)methoxy)quinazolin-7-yl)-5-ethylnaphthalen-2-ol] | 10.1
O=S1(=O)[C@@H]2CC[C@H]1CN(c1nc(OC[C@@]34CCCN3C[C@H](F)C4)nc3c(F)c(-c4cc(O)cc5ccc(F)c(F)c45)ncc13)C2 [Example 29, (1R,5S)-3-(7-(7,8-difluoro-3-hydroxynaphthalen-1-yl)-8-fluoro-2-(((2R,7aS)-2-fluorotetrahydro-1H-pyrrolizin-7a(5H)-yl)methoxy)pyrido[4,3-d]pyrimidin-4-yl)-8-thia-3-azabicyclo [3.2.1]octane 8,8-dioxide] | > 2500
Oc1cc(-c2ccc3c(N4C[C@H]5CC[C@@H](C4)N5)nc(OC[C@@]45CCCN4C[C@H](F)C5)nc3c2)c2c(F)c(F)ccc2c1 [Example 150, 4-(4-((1R,5S)-3,8-diazabicyclo[3.2.1]octan-3-yl)-2-(((2R, 7aS)-2-fluorotetrahydro-1H-pyrrolizin-7a(5H)-yl)methoxy)quinazolin-7-yl)-5,6-difluoronaphthalen-2-ol] | 330
Oc1cc(-c2ccc3c(N4C[C@H]5CC[C@@H](C4)S5)nc(OC[C@@]45CCCN4C[C@H](F)C5)nc3c2F)c2c(F)cccc2c1 [Example 167, 4-(4-((1R,5S)-8-thia-3-azabicyclo[3.2.1]octan-3-yl)-8-fluoro-2-(((2R,7aS)-2-fluorotetrahydro-1H-pyrrolizin-7a(5H)-yl)methoxy)quinazolin-7-yl)-5-fluoronaphthalen-2-ol] | 310
CCc1c(F)ccc2cc(O)cc(-c3ccc4c(N5C[C@H]6CC[C@@H](C5)N6)nc(OC[C@]56CCCN5[C@@H](COC(=O)N(C)C)CC6)nc4c3F)c12 [Example 97, ((3R,7aR)-7a-(((4-((1R,5S)-3,8-diazabicyclo[3.2.1]octan-3-yl)-7-(8-ethyl-7-fluoro-3-hydroxynaphthalen-1-yl)-8-fluoroquinazolin-2-yl)oxy)methyl)hexahydro-1H-pyrrolizin-3-yl) methyl dimethylcarbamate] | 18
Oc1cc(N2CCc3c(nc(OC[C@@]45CCCN4C[C@H](F)C5)nc3N3C[C@H]4CC[C@@H](C3)N4)C2)c2c(F)cccc2c1 [Example 205, 4-(4-((1R,5S)-3,8-diazabicyclo[3.2.1]octan-3-yl)-2-(((2R,7aS)-2-fluorotetrahydro-1H-pyrrolizin-7a(5H)-yl)methoxy)-5,8-dihydropyrido[3,4-d]pyrimidin-7(6H)-yl)-5-fluoronaphthalen-2-ol] | 18
C#Cc1c(F)ccc2cc(O)cc(-c3ncc4c(N5C[C@H]6CC[C@@H](C5)N6)c(C(F)(F)F)c(OC[C@@]56CCCN5C[C@H](F)C6)nc4c3F)c12 [Example 196, 4-(4-((1R,5S)-3,8-diazabicyclo[3.2.1]octan-3-yl)-8-fluoro-2-(((2R,7aS)-2-fluorotetrahydro-1H-pyrrolizin-7a(5H)-yl)methoxy)-3-(trifluoromethyl)-1,6-naphthyridin-7-yl)-5-ethynyl-6-fluoronaphthalen-2-ol] | > 2500
Cc1nccc2cc(O)cc(-c3ncc4c(N5C[C@H]6CC[C@@H](C5)N6)nc(OC[C@@]56CCCN5C[C@H](F)C6)nc4c3F)c12 [Example 343, 8-(4-((1R,5S)-3,8-diazabicyclo[3.2.1]octan-3-yl)-8-fluoro-2-(((2R,7aS)-2-fluorotetrahydro-1H-pyrrolizin-7a(5H)-yl)methoxy)pyrido[4,3-d]pyrimidin-7-yl)-1-methylisoquinolin-6-ol] | 17
C#Cc1cccc2cc(O)cc(-c3ccc4c(N5C[C@H]6CC[C@@H](C5)N6)nc(OCC5(CN6CCCC6)CC5)nc4c3F)c12 [Example 103, 4-(4-((1R,5S)-3,8-diazabicyclo[3.2.1]octan-3-yl)-8-fluoro-2-((1-(pyrrolidin-1-ylmethyl)cyclopropyl)methoxy)quinazolin-7-yl)-5-ethynylnaphthalen-2-ol] | 29
CCc1c(F)ccc2cc(O)cc(-c3ncc4c(N5C[C@H]6CC[C@@H](C5)N6)c(C(F)(F)F)c(OC[C@@]56CCCN5C[C@H](F)C6)nc4c3F)c12 [Example 197, 4-(4-((1R,5S)-3,8-diazabicyclo[3.2.1]octan-3-yl)-8-fluoro-2-(((2R,7aS)-2-fluorotetrahydro-1H-pyrrolizin-7a(5H)-yl)methoxy)-3-(trifluoromethyl)-1,6-naphthyridin-7-yl)-5-ethyl-6-fluoronaphthalen-2-ol] | > 2500
C#Cc1nccc2cc(O)cc(-c3ncc4c(N5C[C@H]6CC[C@@H](C5)N6)nc(OC[C@@]56CCCN5C[C@H](F)C6)nc4c3F)c12 [Example 339, 8-(4-((1R,5S)-3,8-diazabicyclo[3.2.1]octan-3-yl)-8-fluoro-2-(((2R,7aS)-2-fluorotetrahydro-1H-pyrrolizin-7a(5H)-yl)methoxy)pyrido[4,3-d]pyrimidin-7-yl)-1-ethynylisoquinolin-6-ol] | 15
Oc1cc(-c2ccc3c(N4C[C@H]5CC[C@@H](C4)C5(F)F)nc(OC[C@@]45CCCN4C[C@H](F)C5)nc3c2F)c2c(F)c(F)ccc2c1 [Example 122, 4-(4-((1R,5S)-8,8-difluoro-3-azabicyclo [3.2.1]octan-3-yl)-8-fluoro-2-(((2R,7aS)-2-fluorotetrahydro-1H-pyrrolizin-7a(5H)-yl)methoxy)quinazolin-7-yl)-5,6-difluoronaphthalen-2-ol] | > 2500
C#Cc1c(F)ccc2cccc(-c3ccc4c(N5C[C@H]6CC[C@@H](C5)N6)nc(OC[C@]56CCCN5[C@@H](COC(=O)N(C)C)CC6)nc4n3)c12 [Example 147, ((3R,7aR)-7a-(((4-((1R, 5S)-3,8-diazabicyclo [3.2.1]octan-3-yl)-7-(8-ethynyl-7-fluoronaphthalen-1-yl)pyrido[2,3-d]pyrimidin-2-yl)oxy)methyl)hexahydro-1H-pyrrolizin-3-yl)methyl dimethylcarbamate] | > 2500
C#Cc1cccc2cc(O)cc(-c3ncc4c(N5CCC6(CC5)CO[C@@H](C)[C@H]6N)nc(OC[C@@]56CCCN5C[C@H](F)C6)nc4c3F)c12 [Example 56, 4-(4-((3S,4S)-4-amino-3-methyl-2-oxa-8-azaspiro[4.5]decan-8-yl)-8-fluoro-2-(((2R, 7aS)-2-fluorotetrahydro-1H-pyrrolizin-7a(5H)-yl)methoxy)pyrido[4,3-d]pyrimidin-7-yl)-5-ethynylnaphthalen-2-ol] | > 2500
